We go through 42 compounds from US20260132127A1, “NOVEL SPIRO COMPOUND” (MITSUBISHI TANABE PHARMA CORPORATION, priority 2021, published 2026).

pIC50: −log10 of the molar value.

For orientation: pIC50 means −log10 of the IC50, conventionally taken in molar units.

The test has as its target T1, human TRH-DE (Homo sapiens, UniProt Q9UKU6).
T1 construct: expressed in transfected cells; host or cells: Expi 293 cells (transient expression), membrane fraction
T1 sequence (Q9UKU6 1-1069): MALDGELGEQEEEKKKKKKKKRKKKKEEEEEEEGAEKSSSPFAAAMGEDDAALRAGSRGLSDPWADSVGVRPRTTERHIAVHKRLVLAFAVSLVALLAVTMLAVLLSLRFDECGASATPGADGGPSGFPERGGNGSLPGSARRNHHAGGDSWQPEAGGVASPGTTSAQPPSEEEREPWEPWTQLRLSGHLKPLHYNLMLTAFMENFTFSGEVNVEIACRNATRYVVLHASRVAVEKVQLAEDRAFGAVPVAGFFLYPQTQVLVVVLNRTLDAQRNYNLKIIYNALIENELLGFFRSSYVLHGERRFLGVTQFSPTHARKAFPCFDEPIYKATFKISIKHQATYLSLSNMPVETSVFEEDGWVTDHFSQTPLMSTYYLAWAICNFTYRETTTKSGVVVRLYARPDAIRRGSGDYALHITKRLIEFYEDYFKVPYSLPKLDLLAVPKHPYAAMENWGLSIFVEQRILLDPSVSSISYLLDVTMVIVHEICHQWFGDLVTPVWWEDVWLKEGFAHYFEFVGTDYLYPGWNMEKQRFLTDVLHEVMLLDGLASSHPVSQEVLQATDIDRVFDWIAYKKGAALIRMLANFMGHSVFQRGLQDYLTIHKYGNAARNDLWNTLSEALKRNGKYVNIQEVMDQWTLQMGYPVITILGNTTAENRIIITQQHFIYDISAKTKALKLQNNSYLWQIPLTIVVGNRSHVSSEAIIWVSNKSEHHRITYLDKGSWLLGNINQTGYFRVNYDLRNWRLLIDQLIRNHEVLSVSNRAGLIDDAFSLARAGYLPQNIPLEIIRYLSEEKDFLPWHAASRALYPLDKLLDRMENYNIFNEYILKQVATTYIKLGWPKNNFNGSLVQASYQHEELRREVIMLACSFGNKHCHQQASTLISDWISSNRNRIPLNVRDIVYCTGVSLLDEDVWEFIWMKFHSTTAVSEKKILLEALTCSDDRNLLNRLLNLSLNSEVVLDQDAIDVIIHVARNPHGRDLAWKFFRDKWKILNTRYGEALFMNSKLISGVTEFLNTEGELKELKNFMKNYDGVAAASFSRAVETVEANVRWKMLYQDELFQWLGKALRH
Put plainly: TRH-DE inhibition test (RapidFire MS measurement of product Cyclo (His-Pro)). The class given is biochemical. Particulars: membrane fraction of Expi 293 cells expressing human TRH-DE; 10 μM TRH substrate; room temperature, 2 hours; 16-point concentration test. In a few lines:
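Inhibition derived from product/internal-standard ratios of Cyclo(His-Pro), quantified by RapidFire triple-quadrupole MS after acetonitrile:methanol quench, with IC50 fitted over 16 concentrations. Enzyme source: membranes of Expi 293 cells transiently expressing human TRH-DE, 4 μg/ml, pH 7.4 phosphate buffer. Incubation with 10 μM substrate ran 2 h at room temperature.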
The compound `C[C@@H]1COc2nc(C3CCC3)ncc2C(=O)N1C1CC2(C1)CN(S(=O)(=O)c1ccccc1F)C2` [Example 367] gave a pIC50 of 8.10.

As to `CCc1ncc2c(n1)OC[C@@H](C)N(C1CC3(C1)CN(S(=O)(=O)c1ccccc1F)C3)C2=O` [Example 368], the negative-log IC50 (pIC50) was 7.89. To `CC(C)Oc1ncc2c(n1)OC[C@@H](C)N(C1CC3(C1)CN(S(=O)(=O)c1ccccc1F)C3)C2=O` [Example 369, (7R)-6-[2-(2-fluorophenyl)sulfonyl-2-azaspiro[3.3]heptan-6-yl]-7-methyl-2-propan-2-yloxy-7,8-dihydropyrimid[5,4-f][1,4]oxazepin-5-one] belongs 8.10; to `COc1ncc2c(n1)OC[C@@H](C)N(C1CC3(C1)CN(S(=O)(=O)c1ccccc1F)C3)C2=O` [Example 370], 8.10. In the case of `C[C@@H]1COc2nc(OC3CCC3)ncc2C(=O)N1C1CC2(C1)CN(S(=O)(=O)c1ccccc1F)C2` [Example 371] it was 8.30; in that of `C[C@@H]1COc2nc(OC3CCCC3)ncc2C(=O)N1C1CC2(C1)CN(S(=O)(=O)c1ccccc1F)C2` [Example 372], 8.40; in that of `C[C@@H]1COc2nc(OC3CC3)ncc2C(=O)N1C1CC2(C1)CN(S(=O)(=O)c1ccccc1F)C2` [Example 373], 8.30.

`CCOc1ncc2c(n1)OC[C@@H](C)N(C1CC3(C1)CN(S(=O)(=O)c1ccccc1F)C3)C2=O` [Example 374] showed a pIC50 of 8.10. In the case of `C[C@@H]1COc2nc(OC3CCOCC3)ncc2C(=O)N1C1CC2(C1)CN(S(=O)(=O)c1ccccc1F)C2` [Example 375] it was 7.96. In the case of `C[C@@H]1COc2nc(O[C@@H]3CCOC3)ncc2C(=O)N1C1CC2(C1)CN(S(=O)(=O)c1ccccc1F)C2` [Example 376] it was 7.68; in that of `C[C@@H]1COc2nc(O[C@H]3CCOC3)ncc2C(=O)N1C1CC2(C1)CN(S(=O)(=O)c1ccccc1F)C2` [Example 377], 7.85.

`C[C@@H]1COc2nc(N(C)C)ncc2C(=O)N1C1CC2(C1)CN(S(=O)(=O)c1ccccc1F)C2` [Example 380] gave a pIC50 of 8.52. In the case of `C[C@@H]1COc2nc(N3CCCC3)ncc2C(=O)N1C1CC2(C1)CN(S(=O)(=O)c1ccccc1F)C2` [Example 381] it was 8.70.

As to `C[C@@H]1COc2nc(N3CCCCC3)ncc2C(=O)N1C1CC2(C1)CN(S(=O)(=O)c1ccccc1F)C2` [Example 382], the pIC50 was 8.40. In the case of `C[C@@H]1COc2nc(N3CCOCC3)ncc2C(=O)N1C1CC2(C1)CN(S(=O)(=O)c1ccccc1F)C2` [Example 383] it was 7.96; in that of `C[C@@H]1COc2nc(N3CCCOCC3)ncc2C(=O)N1C1CC2(C1)CN(S(=O)(=O)c1ccccc1F)C2` [Example 384], 8.30. In the case of `COC1CCN(c2ncc3c(n2)OC[C@@H](C)N(C2CC4(C2)CN(S(=O)(=O)c2ccccc2F)C4)C3=O)CC1` [Example 387], the negative logarithm of the IC50 (pIC50) is 8.40.

In turn, `C[C@@H]1COc2nc(N3C[C@H]4COC[C@H]4C3)ncc2C(=O)N1C1CC2(C1)CN(S(=O)(=O)c1ccccc1F)C2` [Example 388] had a negative-log IC50 (pIC50) of 8.40. In the case of `C[C@@H]1COc2nc(N3[C@@H]4CC[C@H]3COC4)ncc2C(=O)N1C1CC2(C1)CN(S(=O)(=O)c1ccccc1F)C2` [Example 389] it was 7.92; in that of `C[C@@H]1COc2nc(N3[C@@H]4CCC[C@H]3COC4)ncc2C(=O)N1C1CC2(C1)CN(S(=O)(=O)c1ccccc1F)C2` [Example 390], 7.96. To `C[C@@H]1COc2nc(N3CCOC(F)(F)C3)ncc2C(=O)N1C1CC2(C1)CN(S(=O)(=O)c1ccccc1F)C2` [Example 391] belongs 8.40; to `C[C@@H]1COc2nc(N3[C@@H]4COC[C@H]3C4)ncc2C(=O)N1C1CC2(C1)CN(S(=O)(=O)c1ccccc1F)C2` [Example 392], 8.52. To `CO[C@H]1CCN(c2ncc3c(n2)OC[C@@H](C)N(C2CC4(C2)CN(S(=O)(=O)c2ccccc2F)C4)C3=O)C1` [Example 393] belongs 8.52; to `CO[C@@H]1CCN(c2ncc3c(n2)OC[C@@H](C)N(C2CC4(C2)CN(S(=O)(=O)c2ccccc2F)C4)C3=O)C1` [Example 394], 8.40. On to `C[C@@H]1COc2nc(N3CCC3)ncc2C(=O)N1C1CC2(C1)CN(S(=O)(=O)c1ccccc1F)C2` [Example 395], for which the pIC50 was 8.52. This pIC50 and that of the compound before are within 0.2 log units of each other. The compound `C[C@@H]1COc2nc(N3C[C@H]4C[C@@H]3CO4)ncc2C(=O)N1C1CC2(C1)CN(S(=O)(=O)c1ccccc1F)C2` [Example 396] had a pIC50 of 8.30. Turning to `C[C@@H]1COc2nc(N3C[C@@H]4C[C@H]3CO4)ncc2C(=O)N1C1CC2(C1)CN(S(=O)(=O)c1ccccc1F)C2` [Example 397], the pIC50 is 8.15.

`C[C@@H]1COc2nc(N3C[C@H]4C[C@@H](C3)O4)ncc2C(=O)N1C1CC2(C1)CN(S(=O)(=O)c1ccccc1F)C2` [Example 398] gave a negative-log IC50 (pIC50) of 8.70. `C[C@@H]1COc2nc(N3CC(F)C3)ncc2C(=O)N1C1CC2(C1)CN(S(=O)(=O)c1ccccc1F)C2` [Example 399] had a pIC50 of 8.30. In the case of `C[C@@H]1COc2nc(N3CC[C@H](C#N)C3)ncc2C(=O)N1C1CC2(C1)CN(S(=O)(=O)c1ccccc1F)C2` [Example 401] it was 8.70; in that of `C[C@@H]1COc2nc(N3CC[C@@H](C#N)C3)ncc2C(=O)N1C1CC2(C1)CN(S(=O)(=O)c1ccccc1F)C2` [Example 402], 8.52. In the case of `C[C@@H]1COc2nc(N3C[C@H]4C[C@@H]3C4)ncc2C(=O)N1C1CC2(C1)CN(S(=O)(=O)c1ccccc1F)C2` [Example 403] it was 8.52; in that of `C[C@@H]1COc2nc(N3CC(C(F)(F)F)C3)ncc2C(=O)N1C1CC2(C1)CN(S(=O)(=O)c1ccccc1F)C2` [Example 404], 8.40. To `C[C@@H]1COc2nc(N3CC4(COC4)C3)ncc2C(=O)N1C1CC2(C1)CN(S(=O)(=O)c1ccccc1F)C2` [Example 407] belongs 8.30.

In turn, `C[C@@H]1COc2nc(N3CC4(CCOC4)C3)ncc2C(=O)N1C1CC2(C1)CN(S(=O)(=O)c1ccccc1F)C2` [Example 408] had a negative logarithm of the IC50 (pIC50) of 8.40. In the case of `C[C@@H]1COc2nc(NC3CC3)ncc2C(=O)N1C1CC2(C1)CN(S(=O)(=O)c1ccccc1F)C2` [Example 409] it was 8.40; in that of `CC(C)Nc1ncc2c(n1)OC[C@@H](C)N(C1CC3(C1)CN(S(=O)(=O)c1ccccc1F)C3)C2=O` [Example 410], 8.30; in that of `C[C@@H]1COc2nc(N3CC(C#N)C3)ncc2C(=O)N1C1CC2(C1)CN(S(=O)(=O)c1ccccc1F)C2` [Example 411], 8.10.

Compound `C[C@@H]1COc2nc(N3C[C@H]4CC[C@@H](C3)O4)ncc2C(=O)N1C1CC2(C1)CN(S(=O)(=O)c1ccccc1F)C2` [Example 412] gave a negative logarithm of the IC50 (pIC50) of 7.80.

The compound `Cc1ccsc1S(=O)(=O)N1CC2(CC(N3C(=O)c4cccnc4OCC3C)C2)C1` (stereo not drawn) [Example 413] had a pIC50 of 6.74. To `CCCN(C(=O)c1cccnc1OC)C1CC2(C1)CN(S(=O)(=O)c1cccc(C)c1)C2` [Example 414, 2-methoxy-N-[2-(3-methylphenyl)sulfonyl-2-azaspiro[3.3]heptan-6-yl]-N-propylpyridine-3-carboxamide] belongs 6.21; to `CCCN(C(=O)c1cccnc1OC)C1CC2(C1)CN(S(=O)(=O)c1cccs1)C2` [Example 415], 6.07.
